Structures can show the parent of a compound that is named as a salt. Where two headings read alike, the source gives them in different places.
Key:
primary rat microglia [1] = assay: Cell toxicity (dead cells, size <150 μm2) in coated fibrin (cFib) assay;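 note: share of dead cells sized under 150 µm2 at 10 µM in fibrin-stimulated microglia HTS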
[2] = test system: fibrin-induced microglia activation; assay: Image-based assay of fibrin-induced microglia activation (HTS and dose response); type: cell-based, rat; details: for inhibition at 10 µM: Rattus norvegicus, Microglia, read-out: Fibrin % inhibition
[3] = test system: fibrin- and LPS-induced microglia activation; assay: cells; type: cell-based, rat
[4] = test system: LPS-induced microglia activation; assay: Image-based assay of LPS-induced microglia activation (HTS and dose response); type: cell-based, rat; details: for inhibition at 10 µM: Rattus norvegicus, Microglia, read-out: LPS % inhibition
primary rat microglia [5] = assay: Cell toxicity (dead cells, size <150 μm2) in LPS assay
[6] = primary microglia HTS, 10 μM, fibrin assay, cell size <150 μm^2 as marker of toxicity
[7] = primary microglia HTS, 10 μM, fibrin-stimulated, cell size >800 μm^2 as marker of activation
[8] = HTS of 1907 compounds, quadrant by fibrin and LPS inhibition
[9] = primary microglia HTS, 10 μM, LPS-stimulated, cell size >800 μm^2 as marker of activation
[10] = primary microglia HTS, 10 μM, LPS assay, cell size <150 μm^2 as marker of toxicity
[11] = primary microglia HTS, fibrin stimulation, toxicity = cell size <150 μm2
[12] = primary microglia HTS, fibrin stimulation, activation = cell size >800 μm2
[13] = quadrant by fibrin and LPS inhibition in HTS of 1907 compounds
[14] = 48 h, primary microglia HTS, LPS stimulation, activation = cell size >800 μm2
[15] = primary microglia HTS, LPS stimulation, toxicity = cell size <150 μm2
[16] = primary HTS, 10 μM, fibrin assay, dead cells size <150 μm2
[17] = primary HTS, 10 μM, fibrin-stimulated primary microglia
[18] = primary HTS, 10 μM, LPS-stimulated primary microglia
[19] = primary HTS, 10 μM, LPS assay, dead cells size <150 μm2
[20] = primary microglia HTS, fibrin stimulation, decreased size (<150 μm^2) as marker of toxicity
[21] = primary microglia HTS, fibrin stimulation, increased cell size (>800 μm^2) as marker of activation
[22] = 48 h, primary microglia HTS, LPS stimulation, increased cell size (>800 μm^2) as marker of activation
[23] = primary microglia HTS, LPS stimulation, decreased size (<150 μm^2) as marker of toxicity

Compound: CC(C)[C@H](N)C(=O)OCC(CO)OCn1cnc2c(=O)nc(N)[nH]c21 (stereo partly drawn) [Valganciclovir]
- Fibrin % cell toxicity (primary rat microglia [1]; [6]): 0%
- inhibition at 10 µM [2, 7]: -12%
- Quadrant (FIG. 5b) [3, 8]: Q4
- inhibition at 10 µM [4, 9]: 14%
- LPS % cell toxicity (primary rat microglia [5]; [10]): 1%

Compound: N=C1NC(=O)N2CC12 (stereo not drawn) [Imexon]
- Fibrin % cell toxicity (primary rat microglia [1]; [11]): 1%
- inhibition at 10 µM [2, 12]: -3%
- Quadrant (FIG. 5b) [3, 13]: Q4
- inhibition at 10 µM [4, 14]: 12%
- LPS % cell toxicity (primary rat microglia [5]; [15]): 1%

Compound: O=C1c2ccccc2C(=O)C1c1ccc(Cl)cc1 [Chlorindione]
- Fibrin % cell toxicity (primary rat microglia [1]; [16]): 1%
- Fibrin % inhibition [2, 17]: −7%
- Quadrant (FIG. 5b) ([3]; primary HTS, 10 μM): Q4
- LPS % inhibition [4, 18]: 10%
- LPS % cell toxicity (primary rat microglia [5]; [19]): 0%

Compound: OC[C@H]1O[C@@H](O[C@@H]2[C@@H](CO)OC(O)(CO)[C@H]2O)[C@H](O)[C@@H](O)[C@H]1O (mixture of isomers) [Lactulose]
- Fibrin % cell toxicity (primary rat microglia [1]; [11]): 0%
- inhibition at 10 µM [2, 12]: -14%
- Quadrant (FIG. 5b) [3, 13]: Q4
- inhibition at 10 µM [4, 14]: 4%
- LPS % cell toxicity (primary rat microglia [5]; [15]): 0%

Compound: CCCCCCc1ccc(O)cc1O [Hexylresorcinol]
- Fibrin % cell toxicity (primary rat microglia [1]; [11]): 1%
- inhibition at 10 µM [2, 12]: -6%
- Quadrant (FIG. 5b) [3, 13]: Q4
- inhibition at 10 µM [4, 14]: 18%
- LPS % cell toxicity (primary rat microglia [5]; [15]): 0%

Compound: COCC1=C(C(=O)OC(C)OC(=O)OC(C)C)N2C(=O)[C@@H](NC(=O)/C(=N\OC)c3csc(N)n3)[C@H]2SC1 (stereo partly drawn) [Cefpodoxime Proxetil]
- Fibrin % cell toxicity (primary rat microglia [1]; [16]): 0%
- inhibition at 10 µM [2, 17]: -39%
- Quadrant (FIG. 5b) ([3]; primary HTS, 10 μM): Q4
- inhibition at 10 µM [4, 18]: 12%
- LPS % cell toxicity (primary rat microglia [5]; [19]): 0%

Compound: COc1ccc2cc([C@H](C)CO)ccc2c1 [Naproxol]
- Fibrin % cell toxicity (primary rat microglia [1]; [20]): 0%
- inhibition at 10 µM [2, 21]: -10%
- Quadrant (FIG. 5b) [3, 13]: Q4
- inhibition at 10 µM [4, 22]: 16%
- LPS % cell toxicity (primary rat microglia [5]; [23]): 0%

Compound: CCOC(=O)[C@H](CCc1ccccc1)N[C@@H](C)C(=O)N1Cc2cc(OC)c(OC)cc2C[C@H]1C(=O)O [Moexipril]
- Fibrin % cell toxicity (primary rat microglia [1]; [20]): 1%
- inhibition at 10 µM [2, 21]: -29%
- Quadrant (FIG. 5b) [3, 13]: Q4
- inhibition at 10 µM [4, 22]: 9%
- LPS % cell toxicity (primary rat microglia [5]; [23]): 1%

Compound: Oc1cc(Cl)ccc1Oc1ccc(Cl)cc1Cl [Triclosan]
- Fibrin % cell toxicity (primary rat microglia [1]; [6]): 1%
- inhibition at 10 µM [2, 7]: -6%
- Quadrant (FIG. 5b) [3, 8]: Q4
- inhibition at 10 µM [4, 9]: 16%
- LPS % cell toxicity (primary rat microglia [5]; [10]): 1%

Compound: Nc1ccc(O)c(C(=O)O)c1 [Mesalazine]
- Fibrin % cell toxicity (primary rat microglia [1]; [20]): 1%
- inhibition at 10 µM [2, 21]: 9%
- Quadrant (FIG. 5b) [3, 13]: Q4
- inhibition at 10 µM [4, 22]: 19%
- LPS % cell toxicity (primary rat microglia [5]; [23]): 0%

Compound: Oc1ccc(Cl)c2c1CCC2 [Chlorindanol]
- Fibrin % cell toxicity (primary rat microglia [1]; [16]): 1%
- inhibition at 10 µM [2, 17]: 23%
- Quadrant (FIG. 5b) ([3]; primary HTS, 10 μM): Q4
- inhibition at 10 µM [4, 18]: 15%
- LPS % cell toxicity (primary rat microglia [5]; [19]): 0%

Compound: Cc1ccnc(NS(=O)(=O)c2ccc(N)cc2)n1 [Sulfamerazine]
- Fibrin % cell toxicity (primary rat microglia [1]; [6]): 1%
- inhibition at 10 µM [2, 7]: -2%
- Quadrant (FIG. 5b) [3, 8]: Q4
- inhibition at 10 µM [4, 9]: 12%
- LPS % cell toxicity (primary rat microglia [5]; [10]): 0%

Compound: Cc1ccsc1/C=C/C1=NCCCN1C [Morantel Citrate]
- Fibrin % cell toxicity (primary rat microglia [1]; [20]): 1%
- inhibition at 10 µM [2, 21]: -11%
- Quadrant (FIG. 5b) [3, 13]: Q4
- inhibition at 10 µM [4, 22]: 11%
- LPS % cell toxicity (primary rat microglia [5]; [23]): 0%

Compound: OCc1ccccc1 [Benzyl Alcohol]
- Fibrin % cell toxicity (primary rat microglia [1]; [16]): 0%
- inhibition at 10 µM [2, 17]: -54%
- Quadrant (FIG. 5b) ([3]; primary HTS, 10 μM): Q4
- inhibition at 10 µM [4, 18]: 11%
- LPS % cell toxicity (primary rat microglia [5]; [19]): 0%

Compound: Polymyxin B Sulfate
- Fibrin % cell toxicity (primary rat microglia [1]; [20]): 1%
- Fibrin % inhibition [2, 21]: −25%
- Quadrant (FIG. 5b) [3, 13]: Q1
- LPS % inhibition ([4]; primary microglia HTS, LPS stimulation, increased cell size (>800 μm^2) as marker of activation): 76%
- LPS % cell toxicity (primary rat microglia [5]; [23]): 2%

Reference: US20210330611A1, “THERAPY FOR NEUROLOGICAL DISEASES/DISORDERS” (priority 2020, published 2021)
